# Key:
# [1] = molecular target: T1, purified human DPP‐4 enzyme (Homo sapiens, UniProt P27487); assay: In vitro DPP‐4 degradation; assay type: in vitro ADME
# T1 construct: purchased Sigma-Aldrich
# Description: PP peptides (50 μg) were incubated at 37°C for 0–8 h with 5 μL of purified human DPP‐4 enzyme (0.01 U/L, Sigma‐Aldrich, Gillingham, UK). Degradation reactions were terminated via the addition of 10 μL 10% (v/v) trifluoroacetic acid/water solution. Reaction mixes were separated by reverse phase rp‐HPLC using a Phenomenex C‐18 analytical column (250 × 4.6 mm^2) with UV absorbance detection at 214 nm (ThermoQuest SpectraSystem UV2000 detector). HPLC peaks of interest were collected and analyzed by MALDI‐TOF MS on a Perseptive Biosystems Voyager‐DE Biospectrometry (Hertfordshire, UK).
# [2] = test system: C57BL/6 mice; assay: Acute food intake in overnight fasted mice; assay type: in vivo; conditions: n = 6
# Description: Acute in vivo studies were conducted in groups (n = 6) of 4‐month‐old male C57BL/6 mice (Envigo, Huntington, UK). All mice were maintained on standard rodent chow (10% fat, 30% protein, and 60% carbohydrate; Trouw Nutrition, Northwich, UK), and drinking water provided ad libitum. Mice were housed individually and kept in a temperature‐controlled environment (22 ± 2°C), with a 12‐h light/dark cycle. Experiments were carried out in accordance with the UK Animal Scientific Procedures Act 1986 as well as being approved by Ulster University Animal Ethics Review Committee (AWERB) committee and protected by the UK Home Office Animal project license number PPL2902, approved on April 26, 2021. Acute effects of test peptides on food intake were tested in overnight (16 h) fasted mice. Briefly, fasted mice were administered an intraperitoneal (i.p.) injection of saline vehicle (0.9% (w/v) NaCl) alone or in combination with test peptides (each at 25, 75, or 200 nmol/kg bw) and cumulative food intake measured at regular intervals, to assess the pharmacodynamic profile of the test peptides. For food intake studies, mice were provided with preweighed rodent maintenance diet in their food hopper at t = 0 min, which was then re‐weighed at each timepoint with all due care taken to account for any wastage or crumbling of the food pellets. In this regard, the investigator was present at all times during the 180‐min test period to ensure accuracy and consistency in all measurements. Furthermore, effects of PP or related peptides (25 nmol/kg bw) on glucose homeostasis and insulin secretion were evaluated in overnight fasted mice following i.p. injection of glucose alone (18 mmol/kg bw) or in combination with PP peptides (each at 25 nmol/kg bw).
# T1 sequence (P27487 whole entry): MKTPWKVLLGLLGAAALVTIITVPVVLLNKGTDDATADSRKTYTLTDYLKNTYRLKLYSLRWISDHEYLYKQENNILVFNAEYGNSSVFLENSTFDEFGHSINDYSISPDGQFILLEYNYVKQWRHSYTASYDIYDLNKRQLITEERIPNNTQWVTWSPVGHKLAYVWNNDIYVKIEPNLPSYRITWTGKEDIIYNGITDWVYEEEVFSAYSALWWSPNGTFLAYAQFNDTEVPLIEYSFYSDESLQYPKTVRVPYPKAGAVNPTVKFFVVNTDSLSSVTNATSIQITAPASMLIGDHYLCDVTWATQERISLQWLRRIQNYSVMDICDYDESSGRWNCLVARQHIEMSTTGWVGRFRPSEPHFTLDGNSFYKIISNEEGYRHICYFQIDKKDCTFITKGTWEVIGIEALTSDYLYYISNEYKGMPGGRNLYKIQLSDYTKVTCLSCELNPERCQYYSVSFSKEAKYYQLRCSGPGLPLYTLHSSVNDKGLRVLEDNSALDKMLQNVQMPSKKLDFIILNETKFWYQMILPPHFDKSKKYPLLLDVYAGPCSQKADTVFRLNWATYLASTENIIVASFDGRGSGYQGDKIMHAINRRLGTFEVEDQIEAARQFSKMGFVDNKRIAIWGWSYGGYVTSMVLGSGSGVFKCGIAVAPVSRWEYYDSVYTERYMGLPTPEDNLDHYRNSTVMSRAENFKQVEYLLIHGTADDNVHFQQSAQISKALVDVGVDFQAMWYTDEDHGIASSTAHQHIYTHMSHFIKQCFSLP
compound,measurement,setting,value
"CC[C@H](C)[C@H](NC(=O)[C@H](Cc1ccc(O)cc1)NC(=O)[C@H](CCCNC(=N)N)NC(=O)[C@H](CCCNC(=N)N)NC(=O)[C@H](CC(C)C)NC(=O)[C@H](CC(=O)O)NC(=O)[C@H](C)NC(=O)[C@H](C)NC(=O)[C@H](Cc1ccc(O)cc1)NC(=O)[C@H](CCC(N)=O)NC(=O)[C@H](C)NC(=O)[C@H](CCSC)NC(=O)[C@H](CCC(N)=O)NC(=O)[C@H](CCC(=O)O)NC(=O)[C@@H]1CCCN1C(=O)[C@@H](NC(=O)[C@H](C)NC(=O)[C@H](CC(N)=O)NC(=O)[C@H](CC(=O)O)NC(=O)CNC(=O)[C@@H]1CCCN1C(=O)[C@H](Cc1ccc(O)cc1)NC(=O)[C@@H](NC(=O)[C@@H]1CCCN1C(=O)[C@H](CCC(=O)O)NC(=O)[C@H](CC(C)C)NC(=O)[C@@H]1CCCN1C(=O)[C@H](C)N)C(C)C)[C@@H](C)O)C(=O)N[C@@H](CC(N)=O)C(=O)N[C@@H](CCSC)C(=O)N[C@@H](CC(C)C)C(=O)N[C@H](C(=O)N[C@@H](CCCNC(=N)N)C(=O)N1CCC[C@H]1C(=O)N[C@@H](CCCNC(=N)N)C(=O)N[C@@H](Cc1ccc(O)cc1)C(N)=O)[C@@H](C)O [PP, Pancreatic polypeptide]","DPP‐4 mediated degradation, outcome in words",[1],N‐terminal di‐peptide cleavage to yield PP(3–36)
same,cumulative food intake (appetite suppression),"[2]; 25 nmol/kg i.p., overnight (16 h) fasted mice, up to 180 min, versus saline",particularly effective
same,food intake in combination with CCK‐8,"[2]; PP peptide 25 nmol/kg with CCK‐8 25 nmol/kg i.p., fasted mice, compared with CCK‐8",significantly (p = <0.05 to 0.01) augment this effect from 90 min onwards
same,food intake in combination with exendin‐4,"[2]; PP peptide 25 nmol/kg with exendin‐4 0.25 nmol/kg i.p., fasted mice",additive appetite suppressive actions

# Source: publication PMC11627468, “Novel enzyme‐resistant pancreatic polypeptide analogs evoke pancreatic beta‐cell rest, enhance islet cell turnover, and inhibit food intake in mice” (Biofactors (Oxford, England), 2024)
